Assay results as given in US10973896B2, “Treatment or prevention of melanoma using photochemical internalization of a melanoma antigen” (PCI Biotech AS, priority 2014, dated 2021).

How the values were obtained:
J774 cells = experiment: Live cell fluorescence microscopy of J774 cells; assay type: cell-based, mouse; settings: for cellular uptake and distribution of Alexa488-labelled OVA: with or without parallel PCI treatment, FIG. 9A
Method: Fifty thousand J774.1 cells (ATCC no. TIB-67 mouse monocyte macrophage cell line) were seeded out on no. 1.5 glass coverslips (Glasswarenfabrik Karl Hecht KG, Sondheim, Germany) in 4-well plates overnight. The cells were incubated with 0.05 or 1,0 μg/ml TPCS2a for 18 hours and washed three times in drug-free culture medium prior to incubation with 25 μg/ml OVA-Alexa488 for four hours. Cells were subsequently washed in ice-cold PBS with Ca^2+ and Mg^2+ prior to microscopy. Images of cellular localization and PCI-induced cytosolic release of OVA was obtained by epi-fluorescence microscopy using a Plan-Apochromat 63×/1.40 Oil differential interference contrast (DIC) objective or 40×/0.95 Plan-Apochromat phase contrast (Korr Ph3 M27) objective with a Zeiss Axioimager Z.1 microscope (Carl Zeiss, Oberkochen, Germany). Fluorescence of Alexa488-labelled OVA was obtained by using a 470/40 nm band pass (BP) excitation filter with a beam splitter at 495 nm and a 525/50 nm BP emission filter. TPCS2a fluorescence was obtained by using a 395-440 nm BP excitation filter with a beam splitter at 460 nm, and a 620 nm long pass filter. Micrographs were recorded with a digital AxioCam MRm camera and processed and analysed by use of the Axiovision Software (Carl Zeiss).

bone marrow DCs = experiment: Fluorescence microscopy of cytosolic antigen release in dendritic cells; assay type: cell-based, C57BL/6 mice; settings: incubated with TPCS2a and Alexa488-labelled OVA
Method: Cells (J774.1 (ATCC no. TIB-67 mouse monocyte macrophage cell line) or bone marrow DCs from C57BL/6 mice) were incubated with 0.05 or 1.0 μg/ml TPCS2a and 25 μg/ml OVA-Alexa488 for 18 hours and washed three times in drug-free culture medium prior to incubation for four hours before light activation (3 min LumiSource exposure). The cells were subsequently washed in ice-cold PBS with Ca^2+ and Mg^2+ prior to microscopy. Images of cellular localization and PCI-induced cytosolic release of OVA were obtained by epi-fluorescence microscopy using a Plan-Apochromat 63×/1.40 Oil differential interference contrast (DIC) objective or 40×/0.95 Plan-Apochromat phase contrast (Korr Ph3 M27) objective with a Zeiss Axioimager Z.1 microscope (Carl Zeiss, Oberkochen, Germany). Fluorescence of Alexa488-labelled OVA was obtained by using a 470/40 nm band pass (BP) excitation filter with a beam splitter at 495 nm and a 525/50 nm BP emission filter. TPCS2a fluorescence was obtained by using a 395-440 nm BP excitation filter with a beam splitter at 460 nm, and a 620 nm long pass filter. Micrographs were recorded with a digital AxioCam MRm camera and processed and analysed by use of the Axiovision Software (Carl Zeiss).

[1] = test system: SIINFEKL-specific CD8 T cells; experiment: PCI immunisation of OT-I-spiked mice, SIINFEKL pentamer flow cytometry (Example 2); assay type: in vivo, C57BL/6 mice; settings: TPCS2a at 10, 25, 50, 100 and 250 μg; data not shown
Method: One day prior to the immunisation, spleens and lymph nodes were isolated from female OT-1 mice, and erythrocytes were removed by lysis (RBC Lysing Buffer Hybri-Max from Sigma-Aldrich) from the homogenised cell suspensions. The remaining cells were washed in PBS, filtered through 70 micron nylon strainers, and 2×10^6 OT-1 cells were administered by intravenous injection into recipient female C57BLJ6 mice; the adoptive transfer of SIINFEKL-specific CD8 T cells facilitates monitoring of the immune response by flow cytometry. One day or 8 hours later, mice were bled by tail bleeding, and the blood was collected in heparin-containing tubes for analysis of the baseline frequency of OVA-specific CD8 T cells.
(§1) Then, the mice were shaved on the abdominal area, and the vaccines, consisting of OVA or of a mixture of OVA and TPCS2a, were injected intradermally using syringes with 29G needles. The vaccines were kept light protected and used within 60 minutes of preparation. The vaccines were given in two injections of 50 μl each, on the left and right side of the abdominal mid line. OVA was tested at 10 to 100 μg per dose. The TPCS2a dose was 7.5 to 250 μg.
(§2) On day 0, prior to vaccination and on various days thereafter (e.g. day 6, 7, 8, 9, 14, 23, as indicated) mice were bled by tail bleeding and erythrocytes were removed by lysis, before analysis of antigen-specific CD8 T cells by flow cytometry. At the end of the experiment (typically 11, 12, 14 or 23 days), the mice were euthanized and the splenocytes analysed ex vivo. At various time points after the TPCS2a injection (0-48 hours), the mice were anaesthetised by intraperitoneal injection of a mixture of ketamine (25 mg/kg body weight) and xylazin (4 mg/kg) and placed on a light source (for illumination and activation of the photosensitiser TPCS2a). The light dose was 6 minutes, if not otherwise stated. The whole procedure is illustrated in the scheme of FIG. 6A. The illumination of mice using LumiSource™ is imaged in FIG. 6B.
The frequency of OVA-specific CD8 T-cells in blood was monitored by staining the cells with anti-CD8 antibody and H-2K^b/SIINFEKL ProS pentamer (Proimmune, Oxford, UK) for analysis by flow cytometry. The activation status of the cells was further analysed by testing the expression of CD44 and CD69 by flow cytometry. Intracellular staining for IFN-γ was done after overnight stimulation of splenocytes in 24-well plates with the CD8 epitope OVA257-264 (SIINFEKL) at 37 ° C. Brefeldin A was added during the last 4 hours. The cells were then washed and fixed with 4% formaldehyde in PBS for 10 min on ice. Anti-CD16/32 was added to block unspecific binding to Fc receptors. The cells were then permeabilised with 0.1% NP40 in PBS for 3 min and washed before staining with anti-IFN-γ, anti-CD8 and ant-CD44 antibodies (eBioscience or BD Pharmingen). The cells were acquired using FACSCanto (BD Biosciences, San Jose, USA) and analysed using FlowJo 8.5.2 software (Tree Star, Inc., Ashland, Oreg.).

[2] = Local reaction at the illuminated injection site (Example 2); assay type: in vivo, C57BL/6 mice; settings: higher TPCS2a doses; days 1-3 after illumination; data not shown
Method: as §1, §2

Substance: Alexa488-labelled OVA: Alexa488-labelled OVA protein for fluorescence microscopy
- cellular uptake and distribution of Alexa488-labelled OVA (J774 cells): located close to the cell surface in concise spherical shaped bodies

Substance: tetraphenyl chlorin disulfonate [TPCS2a]
- localisation of antigen and photosensitiser (bone marrow DCs; before light, FIG. 5A): co-localisation of antigen and photosensitiser in DC endosomes
- antigen distribution after light activation (bone marrow DCs; FIG. 5B): release of the antigen into the cytosol could be observed over 15 minutes
- OVA-specific immune response with increasing TPCS2a dose [1]: increased the measured OVA-specific immune response
- relative localisation of antigen and TPCS2a after light activation (J774 cells; FIG. 9B): co-localised
- cellular uptake and distribution of Alexa488-labelled OVA (J774 cells): diffuse green fluorescence
- local inflammation after illumination [2]: more local inflammation with transient erythema
